Measured values reported in US20130209439A1, “INHIBITORS OF PDE4 BINDING TO HSP20” (THE UNIVERSITY COURT OF THE UNIVERSITY OF GLASGOW, priority 2010, published 2013).
Values belong to the compound of their own block, whether it stands above or below them.

Columns and labels:
[1] = test system: cAMP in the vicinity of HSP20; assay: cAMP FRET with cytosolic and HSP20-targeted reporters in cardiac myocytes; assay type: cell-based, rat
Excerpt: FIG. 5. Measurement of relative cAMP concentration in the vicinity of HSP20 using targeted cAMP FRET probes. A, Representative traces showing FRET ratios that indicate relative cAMP concentrations measured by cytosolic and HSP20 targeted cAMP reporter constructs. B, Upper panel, graphical depiction of maximum FRET ratios achieved using both cytosolic and HSP20-targeted probes following treatment with isoprenaline (Iso), rolipram (Roli) and IBMX. Lower panel, images of the localisation of cytosolic and HSP20-targeted cAMP reporter constructs.
The Hsp20-targeted cAMP FRET probe was generated by cloning the Hsp20 open reading frame, excluding the stop codon, immediately 5′ to the EPACG-based FRET sensor^55. Hsp20 open reading frame was amplified from the Ultimate™ ORF clone IOH57317 (Invitrogen) using the following primers to incorporate HindIII restriction sites at both 5′ and 3′ ends: Forward 5′-gcacaagctt[…]-3′ (SEQ ID NO: 70) Reverse 5′-gcacaagctt[…]-3′ (SEQ ID NO: 71). […]
Primary cultures of ventricular cardiac myocytes were prepared from 1-3 day old Sprague-Dawley rats, as described above. […] FRET changes were measured following background subtraction by dividing the intensity of emissions at 480 nm and 545 nm, following excitation at 440 nm. Data are expressed as dR/R0, where R=fret ratio at time t (sec), R0=fret ratio at time zero, and dR=R−R0. […]

[2] = test system: Phospho-Ser16 HSP20 in neonatal cardiac myocytes; assay: Ser16 phosphorylation of endogenous HSP20 in neonatal cardiac myocytes (Western blot); assay type: cell-based, rat
Procedure: FIG. 2. The phosphorylation of HSP20 at Ser16 is modulated by PDE4 activity in cardiac myocytes. A, Neonatal cardiac myocytes were treated with isoprenaline for indicated times with or without pre-treatment with the PDE4-specific inhibitor, rolipram. Cellular lysates were blotted for HSP20 and Phospho-Ser16 HSP20. B, Quantifications of data from FIG. 2A (n=3). * Denotes significance at a level p<0.05 over iso treatment.
(§1) HEK293B2 cells are a stable cell line overexpressing the GFP-tagged β2AR were cultured as previously described^48. HEK293B2 cells were transiently transfected with wild type HSP20 or a phosphorylation defective HSP20 (S16A) or a phosphorylation mimic HSP20 (S16D). Neonatal cardiac myocytes were prepared and cultured as previously described^30. Cell lysis, immunopurification and western blotting was done as described before by us in some detail^48. Briefly, HEK 293 cells were transiently transfected with wild-type HSP20 by using Polyfect Transfection Reagent (Qiagen). Transfected HEK 293 cells were treated with 10 μM bs906 or 10 μM control peptide for 0, 15, 30, 60 and 120 min. Control and treated transfected HEK 293 cells were then washed thrice with ice cold PBS (phosphate buffered saline) before cellular lysates were prepared. Cellular lysates were prepared in lysis buffer containing 25 mM Hepes, pH 7.5, 2.5 mM EDTA, 50 mM NaCl, 50 mM NaF, […], 10% (v/v) glycerol, 1% (v/v) Triton X-100 and Complete™ EDTA-free protease inhibitor cocktail tablets (Roche). Protein concentration of lysates were determined using the Bradford assay and all samples were equalised for protein concentration. Proteins were separated by SOS/PAGE (4-12% Bis-Tris gels) and transferred onto nitrocellulose membranes for Western blotting. Antibodies were used to detect phospho-proteins and native proteins in lysates from control and treated cells
To determine whether inhibition of PDE4 activity had similar effects on endogenous phospho-HSP20 levels in heart cells, similar experiments were undertaken using neonatal cardiomyocytes (FIG. 2).

[3] = test system: Phospho-Ser16 HSP20 in HEKB2 cells; assay: Ser16 phosphorylation of HSP20 in HEKB2 cells overexpressing HSP20 (Western blot); assay type: cell-based; details: HEKB2 cells
Procedure: FIG. 1. The phosphorylation of HSP20 at Ser16 is modulated by PDE4 activity in HEKB2 cells. A, HEKB2 cells overexpressing HSP20 or HSP20 ser16-Ala mutant were treated with isoprenaline for indicated times. Cellular lysates were blotted for HSP20 and Phospho-Ser16 HSP20. B, HEKB2 cells overexpressing HSP20 were treated with isoprenaline for indicated times, Cellular lysates were blotted for HSP20 and Phospho-Ser16 HSP20. C, HEKB2 cells overexpressing HSP20 were treated with isoprenaline for indicated times following pre-treatment with the PDE4-specific inhibitor, rolipram. Cellular lysates were blotted for HSP20 and Phospho-Ser16 HSP20. D, Quantifications of data from FIGS. 1B and 1C (n=4). * Denotes significance at a level p<0.05 E, Lysate from untransfected HEKB2 cells was blotted for HSP20 and Phospho-Ser16 HSP20.
as §1
In contrast to this, when we transfected these cells with a phospho-null mutant form, Ser16Ala-Hsp20, then no such change was observed (FIG. 1A). In order to evaluate whether PDE4 activity played a role in regulating this phosphorylation process in Hsp20-transfected HEKB2 cells, cells that had either been pre-treated or not with the PDE4 selective inhibitor rolipram were subsequently challenged with isoprenaline (1 μM) (FIGS. 1B and C). […] Endogenous levels of phospho-HSP20 or HSP20 were not detectable in HEKB2 cells (FIG. 1E).

[4] = target: T1, His-Hsp20 (Homo sapiens, UniProt O14558); assay: SPOT peptide array overlaid with His-Hsp20; assay type: binding; details: overlay with 10 μg/ml purified His-Hsp20
T1 construct: made in house; host or cells: E. coli BL21
T1 sequence (O14558 1-160): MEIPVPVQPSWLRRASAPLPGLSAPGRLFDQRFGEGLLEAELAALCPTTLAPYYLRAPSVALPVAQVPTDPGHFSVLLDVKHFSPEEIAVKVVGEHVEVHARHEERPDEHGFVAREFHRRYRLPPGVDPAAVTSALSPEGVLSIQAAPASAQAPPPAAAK
Procedure: A variety of peptides were generated and SPOT-synthesised onto slides which were then overlaid with 10 μg/ml of purified His-Hsp20. Interaction with peptides and Hsp20 was evaluated by probing slides with anti-His or Hsp20 antibodies and analysed using enhanced chemi-luminescence techniques, Negative controls used anti-His antibody only with no overlay of His-Hsp20 protein (data not shown). Positive interaction domains were then subjected to further rounds of truncations and key endogenous residues were substituted for non-native residues to ascertain what effects this would have in the binding of Hsp20.
This was done as described in detail elsewhere^41.
PDE4 isoform localisation invariably depends on protein-protein interactions, with PDE4s shown to associate with a diverse group of interacting partners such as RACK1^32, 36, βarrestin^36, β1-Ar^37, DISC1^38, the p75 neurotrophin receptor^39 and the cardiac IKs potassium channel^40. One method that has been pivotal in mapping the sites of association between PDE4s and their binding partners is peptide array^36. SPOT immobilised peptide libraries of PDE4 sequences have been utilised to accurately predict binding domains for partner proteins. Here we have employed this novel technique to define the HSP20 binding site within the sequence of PDE4D5, an isoform that is endogenously expressed in cardiomyocytes. Peptide arrays of overlapping 25-mer peptides, sequentially shifted by 5 amino acids and spanning the entire sequence of PDE4D5, were incubated with purified recombinant HSP20-6his. Dark spots represent positive areas of HSP20 interaction whereas clear spots are negative for the association (FIG. 4A). While no signal was observed when the arrays were overlaid with BSA, positive signals were obtained for 25mer peptides 93 to 96 following HSP20-6His overlay. Peptides 93 to 96 span the amino acid sequence Y^461-K^500 within the conserved catalytic domain of PDE4D5 (FIG. 4A: middle panels). […]

[5] = test system: pS16-Hsp20 in SH-SY5Y cells; assay: Cell based Hsp20-PDE4D disruptor assay, nucleofected SH-SY5Y cells, pS16-Hsp20 Western blot; parameters: species or system human; details: SH-SY5Y cells nucleofected with 500 μM peptide, 2 hours
Procedure: FIG. 9. Disrupter induced HSP20 phosphorylation SH-SY5Y cells nucleofected with 500 μM of each peptide and incubated for 2 hours prior to harvesting. Each assay was blotted for Hsp20, pS16-Hsp20 and tubulin. Changes in levels of phospho-Hsp20 relative to DMSO only controls were quantified through densitometry analysis and each assay was normalised to α-tubulin loading control. The results are the average of three separate experiments and error bars represent SEM. *=p<0.05, **=p<0.01 compared to DMSO only controls (Student-T-test)
SDS-PAGE analysis was done on NuPage® pre-cast gels X-cell apparatus (Invitrogen, Paisley) using MES-SDS running buffer, Samples were reduced in Laemmli 2× loading buffer (4% SOS) with 5% β-mercaptoethanol. For Western Blotting (WB) analysis, samples were transferred using NuPage® X-cell blotting module onto a nitrocellulose membrane. Membranes were blocked using 5% Milk in 1×TBST (w/v). Antibodies were incubated in 1% milk in 1×TBST (w/v) for either 1 hour at room temperature or overnight at 4° C. Signals were detected using enhanced chemiluminescence system (Pierce) and developed on an X-omat film developer. Subsequent densitometry analysis was carried out using Quantity One (Bio-Rad).
SH-SY5Y cells (ATCC-CRL-2266) were grown in Dulbecco's Modified Eagle's Medium (DMEM) and F12-Ham's at a 1:1 ratio, media was supplemented with 10% (v/v) fetal bovine serum (FBS), 1% (v/v) L-Glutamine, 1% (v/v) Minimum Essential Medium—With Non-essential Amino Acids (MEM-NAA) and 1% (v/v) Pen/strep. Cells were cultured in a humidified, 5% (v/v) CO2, 37° C. incubator.
SH-SY5Y cells were nucleofected using Cell Line Nucleofector® Kit-V in accordance with manufacturers protocol (Amaxa Biosystems). Setting A-23 on the Nucleofector I device was used which increases cell viability. For each assay, 500 μM of disrupter peptide was incubated with 100 μl of nucleofection solution containing approximately 2×10^6 cells. After nucleofection cells were re-suspended in 500 μl of culture media before being transferred to a 6 well plate with a final volume of 2 ml per well. Cells were incubated for 2 hours prior to harvesting with […] containing protease and phosphatase inhibitors (Roche).
As the cell permeability of the peptides is unknown we used an electroporation technique to introduce the peptides into the SH-SY5Y cells. The Amaxa cell-line specific Nucleofector Kit V (Lonza) was used to transfect the peptides into the cells. […] Each assay used a final concentration of 500 μM of peptide in nucleofector solution containing approximately 2×10^6 SH-SY5Y cells. As peptides were dissolved in 100% DMSO, control transfections with DMSO only were used to compare any changes in phospho-Hsp20 levels. After each transfection the solution was reconstituted in culture media and incubated for 2 hours to allow for cell adhesion prior to the harvesting of viable cells.

Compound: CC(C)Cn1c(=O)n(C)c(=O)c2[nH]cnc21 [IBMX]
cAMP FRET response, HSP20-targeted reporter compared with cytosolic probe [1]: identical maximal response

Compound: COc1ccc(C2CNC(=O)C2)cc1OC1CCCC1 (stereo not drawn) [rolipram]
phospho-HSP20 levels ([2]; cardiomyocytes, PDE4 inhibition alone): marked increase in phospho-HSP20 levels
isoprenaline-induced increase in endogenous phospho-HSP20 levels ([2]; neonatal cardiomyocytes, rolipram pre-treatment): markedly augmented
isoprenaline-stimulated HSP20 phosphorylation ([3]; rolipram pre-treatment then isoprenaline 1 μM): increased isoprenaline-stimulated HSP20 phosphorylation
phospho-HSP20 levels compared to resting cells ([3]; rolipram treatment alone): clear increase in phospho-HSP20 levels
cAMP FRET response, HSP20-targeted reporter compared with cytosolic probe [1]: clearly greater in the HSP20 targeted reporter

Compound: Ac-GFK-NH2 (Ac-Gly-Phe-Lys-NH2) [Peptide 17]
binding of Hsp20 to peptide on array [4]: shortest size
pS16-Hsp20 levels relative to DMSO only controls [5]: indistinguishable from DMSO only controls

Second part, led by results:

binding of Hsp20 to peptide on array [4]: shown to bind HSP20
Compound: Ac-FQNLTR-NH2 [Peptide 5]
pS16-Hsp20 levels relative to DMSO only controls [5]: inability

binding of Hsp20 to peptide on array [4]: shortest size
Compound: Ac-KLL-NH2 (Ac-Lys-Leu-Leu-NH2) [Peptide 10]
pS16-Hsp20 levels relative to DMSO only controls [5]: indistinguishable from DMSO only controls
